Organism: Rattus norvegicus
Assay: Open TG-GATES - Regimen: Single
Assay type: toxicity, organism-based, Sprague-Dawley
Set-up: regimen Single, gender Male, age 6 weeks
Conditions: in vivo, po, 0 mg/kg, route gavage, dose level Control; for APTT / Bas / Eos / Fbg / Hb / Ht / Lym / MCH / MCHC / MCV / Mono / Neu / PT / Plat / RBC / Ret / WBC: tissue Blood; for KIDNEY_L / KIDNEY_R / KIDNEY_TOTAL: tissue Kidney; for LIVER: tissue Liver; for A/G / ALP / ALT / AST / BUN / CRE / Ca / Cl / DBIL / GLC / IP / K / LDH / Na / PL / RALB / TBIL / TC / TG / TP / gamma-GTP: tissue Plasma

OCCOCCN1CCN(C(c2ccccc2)c2ccc(Cl)cc2)CC1 (configuration not stated) [HYDROXYZINE]
TERMINAL_BW (3 h): 191.8 g | APTT (3 h): 16.4 s | Bas (3 h): 0% | Eos (3 h): 0.8% | Fbg (3 h): 287 mg/dL | Hb (3 h): 13.2 g/dL | Ht (3 h): 41% | Lym (3 h): 78% | MCH (3 h): 21.5 pg | MCHC (3 h): 32.3% | MCV (3 h): 66.6 fL | Mono (3 h): 3% | Neu (3 h): 17.4% | PT (3 h): 15.4 s | Plat (3 h): 120.7 x10_4/uL | RBC (3 h): 616 x10_4/ul | Ret (3 h): 8.7% | WBC (3 h): 71.8 x10_2/uL | KIDNEY_L (3 h): 0.9 g | KIDNEY_R (3 h): 0.9 g | KIDNEY_TOTAL (3 h): 1.7 g | LIVER (3 h): 8.6 g | A/G (3 h): 0.8 | ALP (3 h): 1501.4 IU/L | ALT (3 h): 41 IU/L | AST (3 h): 73 IU/L | BUN (3 h): 9 mg/dL | CRE (3 h): 0.2 mg/dL | Ca (3 h): 10.9 mg/dL | Cl (3 h): 106 meq/L | DBIL (3 h): 0.012 mg/dL | GLC (3 h): 176.8 mg/dL | IP (3 h): 9.2 mg/dL | K (3 h): 4.2 meq/L | LDH (3 h): 61.8 IU/L | Na (3 h): 141.8 meq/L | PL (3 h): 138.6 mg/dL | RALB (3 h): 2.5 g/dL | TBIL (3 h): 0.056 mg/dL | TC (3 h): 75.4 mg/dL | TG (3 h): 68.8 mg/dL | TP (3 h): 5.4 g/dL | gamma-GTP (3 h): 1 IU/L | TERMINAL_BW (6 h): 194.9 g | APTT (6 h): 16.3 s | Bas (6 h): 0% | Eos (6 h): 0.4% | Fbg (6 h): 298.6 mg/dL | Hb (6 h): 13.1 g/dL | Ht (6 h): 40.8% | Lym (6 h): 76.2% | MCH (6 h): 21.7 pg | MCHC (6 h): 32.1% | MCV (6 h): 67.5 fL | Mono (6 h): 2.4% | Neu (6 h): 20.4% | PT (6 h): 15.3 s | Plat (6 h): 116.6 x10_4/uL | RBC (6 h): 604 x10_4/ul | Ret (6 h): 9% | WBC (6 h): 60.3 x10_2/uL | KIDNEY_L (6 h): 0.9 g | KIDNEY_R (6 h): 0.9 g | KIDNEY_TOTAL (6 h): 1.8 g | LIVER (6 h): 8.5 g | A/G (6 h): 0.9 | ALP (6 h): 1502.2 IU/L | ALT (6 h): 36.4 IU/L | AST (6 h): 68.8 IU/L | BUN (6 h): 9.2 mg/dL | CRE (6 h): 0.2 mg/dL | Ca (6 h): 10.9 mg/dL | Cl (6 h): 105.2 meq/L | DBIL (6 h): 0.012 mg/dL | GLC (6 h): 183.6 mg/dL | IP (6 h): 9.9 mg/dL | K (6 h): 4.2 meq/L | LDH (6 h): 56.2 IU/L | Na (6 h): 141.6 meq/L | PL (6 h): 147.6 mg/dL | RALB (6 h): 2.5 g/dL | TBIL (6 h): 0.058 mg/dL | TC (6 h): 81.4 mg/dL | TG (6 h): 52.6 mg/dL | TP (6 h): 5.3 g/dL | gamma-GTP (6 h): 0.8 IU/L | TERMINAL_BW (9 h): 191 g | APTT (9 h): 16.5 s | Bas (9 h): 0% | Eos (9 h): 0.8% | Fbg (9 h): 260.4 mg/dL | Hb (9 h): 12.9 g/dL | Ht (9 h): 39.9% | Lym (9 h): 73.4% | MCH (9 h): 20.5 pg | MCHC (9 h): 32.4% | MCV (9 h): 63.5 fL | Mono (9 h): 2.6% | Neu (9 h): 22.4% | PT (9 h): 15.2 s | Plat (9 h): 110.7 x10_4/uL | RBC (9 h): 631.2 x10_4/ul | Ret (9 h): 8.2% | WBC (9 h): 82.7 x10_2/uL | KIDNEY_L (9 h): 0.9 g | KIDNEY_R (9 h): 0.9 g | KIDNEY_TOTAL (9 h): 1.8 g | LIVER (9 h): 7.9 g | A/G (9 h): 0.9 | ALP (9 h): 1265.6 IU/L | ALT (9 h): 38 IU/L | AST (9 h): 75 IU/L | BUN (9 h): 9.4 mg/dL | CRE (9 h): 0.1 mg/dL | Ca (9 h): 10.6 mg/dL | Cl (9 h): 105.4 meq/L | DBIL (9 h): 0.012 mg/dL | GLC (9 h): 176.2 mg/dL | IP (9 h): 10.1 mg/dL | K (9 h): 4.2 meq/L | LDH (9 h): 55.4 IU/L | Na (9 h): 142 meq/L | PL (9 h): 129.4 mg/dL | RALB (9 h): 2.5 g/dL | TBIL (9 h): 0.068 mg/dL | TC (9 h): 76.8 mg/dL | TG (9 h): 21 mg/dL | TP (9 h): 5.4 g/dL | gamma-GTP (9 h): 1 IU/L | TERMINAL_BW (24 h): 204.1 g | APTT (24 h): 15.6 s | Bas (24 h): 0.2% | Eos (24 h): 0.8% | Fbg (24 h): 275.8 mg/dL | Hb (24 h): 13.1 g/dL | Ht (24 h): 40.4% | Lym (24 h): 80.2% | MCH (24 h): 21.6 pg | MCHC (24 h): 32.6% | MCV (24 h): 66.3 fL | Mono (24 h): 2.6% | Neu (24 h): 15.8% | PT (24 h): 16 s | Plat (24 h): 114.8 x10_4/uL | RBC (24 h): 609.2 x10_4/ul | Ret (24 h): 7.1% | WBC (24 h): 63.9 x10_2/uL | KIDNEY_L (24 h): 0.9 g | KIDNEY_R (24 h): 0.9 g | KIDNEY_TOTAL (24 h): 1.8 g | LIVER (24 h): 9.3 g | A/G (24 h): 0.9 | ALP (24 h): 1738.8 IU/L | ALT (24 h): 43.4 IU/L | AST (24 h): 71 IU/L | BUN (24 h): 14.8 mg/dL | CRE (24 h): 0.1 mg/dL | Ca (24 h): 11.2 mg/dL | Cl (24 h): 106.6 meq/L | DBIL (24 h): 0.014 mg/dL | GLC (24 h): 176.8 mg/dL | IP (24 h): 7.6 mg/dL | K (24 h): 4.5 meq/L | LDH (24 h): 64.4 IU/L | Na (24 h): 141.4 meq/L | PL (24 h): 147.8 mg/dL | RALB (24 h): 2.6 g/dL | TBIL (24 h): 0.056 mg/dL | TC (24 h): 75.2 mg/dL | TG (24 h): 75.4 mg/dL | TP (24 h): 5.7 g/dL | gamma-GTP (24 h): 0.8 IU/L
